Assay results: patent publication US4602035A, “Antidepressant (3-aryl-2,3-dihydrobenzofuran-3-yl)alkylamines” (Hoechst-Roussel Pharmaceuticals Inc., priority 1983, dated 1986)
Where a name gives a salt, the structure may show the parent alone. Read-outs that look alike come from different tables or passages of the source.

Assays:
[1] = test system: 2-phenyl-1,4-benzoquinone-induced writhing in mice; experiment: 2-phenyl-1,4-benzoquinone-induced writhing (PQW) test in mice (analgesic activity); assay type: in vivo; settings: for PQW Percent writhing inhib.: s.c.; for inhibition in vivo at 10 mg/kg / ED50: Mus musculus, sc; for inhibition in vivo at 10 mg/kg: 10 mg/kg s.c., read-out: PQW Percent writhing inhib. @ 10 mg/kg s.c.
Description: Compounds I of the present invention are also useful as analgesic agents due to their ability to alleviate pain in mammals. […] Exptl. Biol. Med., 95, 729 (1957)].

[2] = test system: Tetrabenazine induced ptosis in mice; experiment: Prevention of tetrabenazine (TBZ) induced ptosis in mice (antidepressant activity); assay type: in vivo; settings: Mus musculus; for inhibition in vivo at 20 mg/kg: 20 mg/kg i.p., read-out: TBZ Percent ptosis inhit. @ 20 mg/kg i.p.
Description: The method used is as follows.
Male mice weighing 20 to 30 grams are used in test groups of five subjects. All compounds are dissolved, or suspended with one drop of a non-ionic surfactant in distilled water and administered in volumes of 10 ml/kg of body weight. Tetrabenazine (TBZ) solution is made from methanesulfonate salt and the concentration is adjusted to enable the administration of 40 mg/kg of base by intraperitoneal injection (i.p.).
If the test compound is administered intraperitoneally, TBZ is injected 30 minutes after administration. If the test compound is administered orally (p.o.), TBZ is injected 60 minutes after the administration. A control group receives solvent and TBZ by the same route and at the same intervals as the drug groups.
The total score for each group of five will therefore be from 0 to 20 and these scores are used as indications of drug activity.
The vehicle-control group score is used as a determinate of the validity of each test.
A linear-regression analysis is used to estimate ED50 values.

[3] = footnote a: determined by oral administration, mice, TBZ 40 mg/kg i.p., read-out: TBZ ED50 i.p.

Row | Compound | inhibition in vivo at 10 mg/kg [1] [%] | inhibition in vivo at 20 mg/kg ([2]; ip, mice) [%] | other results
1 | CN(C)CCC1(c2ccccc2)COc2ccccc21.O=C(O)C(=O)O (stereo not shown) [2-(3-Phenyl-2,3-dihydrobenzofuran-3-yl)-N,N-dimethylethylamine oxalate] | – | – | PQW Percent writhing inhib. ([1]; footnote b: at 20 mg/kg): 49%; ED50 [2, 3]: 3.03 mg/kg
2 | CN(CCCC1(c2ccccc2)COc2ccccc21)CCc1ccccc1 (stereo not shown) [3-(3-Phenyl-2,3-dihydrobenzofuran-3-yl)-N-methyl-N-phenethylpropylamine oxalate] | 46 | 0 | –
3 | CN(CCC#N)CCC1(c2ccccc2)COc2ccccc21 (stereo not shown) [2-(3-Phenyl-2,3-dihydrobenzofuran-3-yl)-N-(2-cyanoethyl)-N-methylethylamineoxalate] | – | 21 | PQW Percent writhing inhib. ([1]; footnote b: at 20 mg/kg): 33%
4 | Cc1ccc(C2(CCN(C)C)COc3ccccc32)cc1 (stereo not shown) [3-[3-(4-Tolyl)-2,3-dihydrobenzofuran-3-yl]-N,N-dimethylethylamine fumarate] | 61 | 20 | –
5 | CN(C)CCCN1c2ccccc2CCc2ccccc21 [imipramine, reference compound] | – | – | ED50 ([2]; po, read-out: antidepressant ED50): 5.5 mg/kg
6 | CN(C)CCCC1(c2ccccc2)COc2ccc(Cl)cc21.O=C(O)C(=O)O (stereo not shown) [3-(3-Phenyl-5-chloro-2,3-dihydrobenzofuran-3-yl)-N,N-dimethylpropylamine oxalate] | – | 15 | PQW Percent writhing inhib. ([1]; footnote b: at 20 mg/kg): 38%
7 | CN(C#N)CCC1(c2ccccc2)COc2ccccc21 (stereo not shown) [2-(3-Phenyl-2,3-dihydrobenzofuran-3-yl)-N-cyano-N-methylethylamine] | 59 | 20 | –
8 | CNCCCC1(c2ccccc2)COc2ccccc21.Cl (stereo not shown) [3-(3-Phenyl-2,3-dihydrobenzofuran-3-yl)-N-methylpropylamine hydrochloride] | 54 | – | ED50 ([2]; ip, mice, TBZ 40 mg/kg i.p., read-out: TBZ ED50 i.p.): 13.7 mg/kg
9 | CN(C)CCC1(c2ccccc2F)COc2ccccc21 (stereo not shown) [3-[3-(2-Fluorophenyl)-2,3-dihydrobenzofuran-3-yl]-N,N--dimethylethylamine fumarate] | 35 | 60 | –
10 | CN(CCCC1(c2ccccc2)COc2ccccc21)CC1CC1 (stereo not shown) [3-(3-Phenyl-2,3-dihydrobenzofuran-3-yl)-N-cyclopropylmethyl-N-methylpropylamine oxalate] | 48 | 10 | –
11 | CN(CCC1(c2ccccc2)COc2ccccc21)CC1CC1.O=C(O)/C=C/C(=O)O (stereo not shown) [2-(3-Phenyl-2,3-dihydrobenzofuran-3-yl)-N-cyclopropylmethyl-N-methylethylamine fumarate] | – | 22 | ED50 [1]: 6.27 mg/kg
12 | CN(C)CCCC1(c2ccccc2)COc2ccccc21.O=C(O)C(=O)O (stereo not shown) [3-(3-Phenyl-2,3-dihydrobenzofuran-3-yl)-N,N-dimethylpropylamine oxalate] | – | 37 | PQW Percent writhing inhib. ([1]; footnote c: at 25 mg/kg): 59%
13 | Cc1ccccc1C1(CCN(C)C)COc2ccccc21 (stereo not shown) [3-[3-(2-Tolyl)-2,3-dihydrobenzofuran-3-yl]-N,N-dimethylethylamine fumarate] | 34 | 10 | –
14 | CN(CCCC1(c2ccccc2)COc2ccccc21)C(=O)OCC(Cl)(Cl)Cl (stereo not shown) [3-(3-Phenyl-2,3-dihydrobenzofuran-3-yl)-N-(2,2,2-trichloroethoxycarbonyl)-N-methylpropylamine] | 32 | – | –
15 | CN(CCc1ccccc1)CCC1(c2ccccc2)COc2ccccc21.O=C(O)/C=C/C(=O)O (stereo not shown) [2-(3-Phenyl-2,3-dihydrobenzofuran-3-yl)-N-methyl-N-phenethylethylamine fumarate] | – | 17 | ED50 [1]: 20 mg/kg
16 | CN(CCC1(c2ccccc2)COc2ccccc21)C(=O)OCC(Cl)(Cl)Cl (stereo not shown) [2-(3-Phenyl-2,3-dihydrobenzofuran-3-yl)-N-(2,2,2-trichloroethoxycarbonyl)-N-methylethylamine] | – | 6 | –
17 | CNCCC1(c2ccccc2)COc2ccccc21.Cl (stereo not shown) [2-(3-Phenyl-2,3-dihydrobenzofuran-3-yl)-N-methylethylamine hydrochloride] | 53 | – | ED50 [2, 3]: 4.99 mg/kg
